What follows are molecules tested on HCV 1b_Huh-Luc/Neo-ET cell line persistently expressing a bicistronic genotype 1b replicon in Huh 7 cells (assay: HCV replicon assay (luciferase readout)). Details: Hepatitis C virus, Huh-7, 72 h, read-out: Inhibition of HCV genotype 1b.
Assay type: cell-based
How it was run: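 EC50, determined repeatedly, comes from a four-parameter logistic fit of luciferase signal as percent of untreated control. Readout follows 72 h compound exposure, in triplicate, of the HCV 1b_Huh-Luc/Neo-ET replicon line.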

SMILES | EC50 [nM]
C[C@H]1OC(=O)N[C@@H]1C(=O)N1CCC[C@H]1c1ncc(-c2ccc(C#Cc3ccc(-c4cnc([C@@H]5CCCN5C(=O)[C@H]5NC(=O)O[C@@H]5C)[nH]4)cc3)cc2)[nH]1 [Compound 979] | 10 to 999
C[C@H]1OC(=O)N(C)[C@@H]1C(=O)N1CCC[C@H]1c1ncc(-c2ccc(C#Cc3ccc(-c4cnc([C@@H]5CCCN5C(=O)[C@@H]5[C@@H](C)OC(=O)N5C)[nH]4)cc3)cc2)[nH]1 [Compound 980] | 10 to 999
COC(=O)N[C@H](C(=O)N1CCC[C@H]1c1ncc(-c2ccc(C#Cc3ccc(-c4cnc([C@H](C)NC(=O)[C@H](C(C)C)N(C)C)[nH]4)cc3)cc2)[nH]1)C(C)C [Compound 981] | 10 to 999
COC(=O)N[C@H](C(=O)N1CCC[C@H]1c1ncc(-c2ccc(C#Cc3ccc(-c4cnc([C@H](C)NC(=O)[C@@H](C(C)C)N(C)C)[nH]4)cc3)cc2)[nH]1)C(C)C [Compound 982] | 10 to 999
COC(=O)N[C@H](C(=O)N1CCC[C@H]1c1ncc(-c2ccc(C#Cc3ccc(-c4cnc([C@H](C)NC(=O)[C@@H](c5ccccc5)N(C)C)[nH]4)cc3)cc2)[nH]1)C(C)C [Compound 983] | < 1
COC(=O)N[C@H](C(=O)N1CCC[C@H]1c1ncc(-c2ccc(C#Cc3ccc(-c4cnc([C@@H]5CCCN5C(=O)[C@@H](c5ccccc5)N5CCCC5)[nH]4)cc3)cc2)[nH]1)C(C)C [Compound 984] | < 1
CCN(CC)[C@@H](C(=O)N1CCC[C@H]1c1ncc(-c2ccc(C#Cc3ccc(-c4cnc([C@@H]5CCCN5C(=O)[C@@H](NC(=O)OC)C(C)C)[nH]4)cc3)cc2)[nH]1)c1ccccc1 [Compound 985] | < 1
COC(=O)N[C@H](C(=O)N1CCC[C@H]1c1ncc(-c2ccc(C#Cc3ccc(-c4cnc([C@@H]5CCCN5C(=O)[C@@H](c5ccccc5)N5CCCCC5)[nH]4)cc3)cc2)[nH]1)C(C)C [Compound 986] | < 1
COC(=O)N[C@H](C(=O)N1CCC[C@H]1c1ncc(-c2ccc(C#Cc3ccc(-c4cnc([C@@H]5CCCN5C(=O)[C@@H](c5ccccc5)N5CCOCC5)[nH]4)cc3)cc2)[nH]1)C(C)C [Compound 987] | < 1
CC(C)[C@H](NC(=O)N1CC[C@H](O)C1)C(=O)N1CCC[C@H]1c1ncc(-c2ccc(C#Cc3ccc(-c4cnc([C@@H]5CCCN5C(=O)[C@@H](NC(=O)N5CC[C@H](O)C5)C(C)C)[nH]4)cc3)cc2)[nH]1 [Compound 988] | 10 to 999
COC(=O)N[C@H](C(=O)N1CCC[C@H]1c1ncc(-c2ccc(C#Cc3ccc(-c4cnc([C@@H]5CCCN5C(=O)[C@H](NC(=O)N5CCN(C)CC5)c5ccccc5)[nH]4)cc3)cc2)[nH]1)C(C)C [Compound 989] | < 1
COC(=O)N[C@H](C(=O)N1CCC[C@H]1c1ncc(-c2ccc(C#Cc3ccc(-c4cnc([C@@H]5CCCN5C(=O)[C@@H](NC(=O)N5CCN(CCO)CC5)c5ccccc5)[nH]4)cc3)cc2)[nH]1)C(C)C [Compound 990] | 1 to 9.9
COC(=O)N[C@H](C(=O)N1CCC[C@H]1c1ncc(-c2ccc(C#Cc3ccc(-c4cnc([C@@H]5CCCN5C(=O)[C@H](NC(=O)N5CCC(O)CC5)c5ccccc5)[nH]4)cc3)cc2)[nH]1)C(C)C [Compound 991] | 1 to 9.9
COC(=O)N[C@H](C(=O)N1CCC[C@H]1c1ncc(-c2ccc(C#Cc3ccc(-c4cnc([C@@H]5CCCN5C(=O)[C@H](NC(=O)N5CCC(C)(O)CC5)c5ccccc5)[nH]4)cc3)cc2)[nH]1)C(C)C [Compound 992] | < 1
COC(=O)N[C@H](C(=O)N1CCC[C@H]1c1ncc(-c2ccc(C#Cc3ccc(-c4cnc([C@@H]5CCCN5C(=O)[C@@H](NC(=O)OC)C(C)(C)O)[nH]4)cc3)cc2)[nH]1)C(C)(C)O [Compound 993] | < 1
COC(=O)N[C@H](C(=O)N1CCC[C@H]1c1ncc(-c2ccc(C#Cc3ccc(-c4cnc([C@@H]5CCCN5C(=O)[C@@H](NC(=O)OC)C(C)(C)O)[nH]4)cc3)cc2)[nH]1)C(C)C [Compound 994] | < 1

SMILES | EC50 [nM]
COC(=O)N[C@H](C(=O)N1CCC[C@H]1c1ncc(-c2ccc(C#Cc3ccc(-c4cnc([C@@H]5CCCN5C(=O)[C@@H](Nc5cccnc5)C(C)C)[nH]4)cc3)cc2)[nH]1)C(C)C [Compound 995] | < 1
COC(=O)N[C@H](C(=O)N1CCC[C@H]1c1ncc(-c2ccc(C#Cc3ccc(-c4cnc([C@@H]5CCCN5C(=O)[C@H](C(C)C)N5CCOC5=O)[nH]4)cc3)cc2)[nH]1)C(C)C [Compound 996] | < 1
CNC(=O)N[C@@H](C(=O)N1CCC[C@H]1c1ncc(-c2ccc(C#Cc3ccc(-c4cnc([C@@H]5CCCN5C(=O)[C@H](NC(=O)C5CC5)c5ccccc5)[nH]4)cc3)cc2)[nH]1)c1ccccc1 [Compound 997] | < 1
C[C@@H]1OC(=O)N[C@H]1C(=O)N1CCC[C@H]1c1ncc(-c2ccc(C#Cc3ccc(-c4cnc([C@@H]5CCCN5C(=O)[C@@H]5NC(=O)O[C@H]5C)[nH]4)cc3)cc2)[nH]1 [Compound 1000] | 10 to 999
COC(=O)N[C@H](C(=O)N1CCC[C@H]1c1ncc(-c2ccc(C#Cc3ccc(-c4cnc([C@@H]5CCCN5C(=O)[C@@H](NC5CCOCC5)C(C)C)[nH]4)cc3)cc2)[nH]1)C(C)C [Compound 1001] | 1 to 9.9
COC(=O)N[C@H](C(=O)N1CCC[C@H]1c1ncc(-c2ccc(C#Cc3ccc(-c4cnc([C@@H]5CCCN5C(=O)[C@H](NC(=O)OC)c5ccccc5)[nH]4)cc3)cc2)[nH]1)C(C)C [Compound 1002] | < 1
COC(=O)N[C@H](C(=O)N1CCC[C@H]1c1ncc(-c2ccc(C#Cc3ccc(-c4cnc([C@@H]5CCCN5C(=O)[C@@H](Nc5ncccn5)C(C)C)[nH]4)cc3)cc2)[nH]1)C(C)C [Compound 1003] | < 1
COC(=O)N[C@@H](C)C(=O)N1CCC[C@H]1c1ncc(-c2ccc(C#Cc3ccc(-c4cnc([C@@H]5CCCN5C(=O)[C@H](NC(=O)OC)c5ccccc5)[nH]4)cc3)cc2)[nH]1 [Compound 1004] | < 1
COC(=O)N[C@@H](C(=O)N1CCC[C@H]1c1ncc(-c2ccc(C#Cc3ccc(-c4cnc([C@@H]5CCCN5C(=O)[C@H](C(C)C)N5CCOC5=O)[nH]4)cc3)cc2)[nH]1)c1ccccc1 [Compound 1005] | < 1
CC(C)[C@@H](C(=O)N1CCC[C@H]1c1ncc(-c2ccc(C#Cc3ccc(-c4cnc([C@@H]5CCCN5C(=O)[C@H](C(C)C)N5CCOC5=O)[nH]4)cc3)cc2)[nH]1)N1CCOC1=O [Compound 1006] | 10 to 999
COC(=O)N[C@H](C(=O)N1CCC[C@H]1c1ncc(-c2ccc(C#Cc3ccc(-c4cnc([C@@H]5CCCN5C(=O)[C@@H](c5ccccc5)N5CCOC5=O)[nH]4)cc3)cc2)[nH]1)C(C)C [Compound 1007] | < 1
COC(=O)N[C@@H](C)C(=O)N1CCC[C@H]1c1ncc(-c2ccc(C#Cc3ccc(-c4cnc([C@@H]5CCCN5C(=O)[C@@H](c5ccccc5)N5CCOC5=O)[nH]4)cc3)cc2)[nH]1 [Compound 1008] | < 1
COC(=O)N[C@@H](C(=O)N1CCC[C@H]1c1ncc(-c2ccc(C#Cc3ccc(-c4cnc([C@@H]5CCCN5C(=O)[C@H](NC(=O)OC)c5ccccc5)[nH]4)cn3)cc2)[nH]1)c1ccccc1 [Compound 1010] | < 1
COC(=O)NC(C(=O)N1CCC[C@H]1c1ncc(-c2ccc(C#Cc3ccc(-c4cnc([C@@H]5CCCN5C(=O)[C@@H](NC(=O)OC)C(C)C)[nH]4)c(F)c3)cc2)[nH]1)C(C)C (stereo partly shown) [Compound 1011] | < 1
COC(=O)N[C@H](C(=O)N1CCC[C@H]1c1ncc(-c2ccc(C#Cc3ccc(-c4cnc([C@@H]5CCCN5C(=O)[C@@H](NC(=O)OC)C5CCOCC5)[nH]4)c(F)c3)cc2)[nH]1)C1CCOCC1 [Compound 1012] | < 1

— patent US8865756B2, “Inhibitors of HCV NS5A” (Presidio Pharmaceuticals, Inc., priority 2008, dated 2014)
